We go through one compound from US6806085B1, “2-deoxyglucose-6-phosphate (2-DOG-6-P) phosphatase DNA sequences as selection marker in plants” (IPK Gatersleben, priority 1997, dated 2004).

One assay has as its system tobacco leaf disks. Briefly: Toxicity of 2-DOG for plant cells, tobacco leaf pieces on 2-DOG-containing MS medium. The format is cell-based, Nicotiana tabacum Var. Samsun NN. As to conditions: MS medium with 0.01 to 0.5% 2-DOG, two weeks. The source says:
(§1) FIGS. 2A and 2B Cultivation of tobacco (Nicotiana tabacum Var. Samsun NN, A-D) and potato (Solanum tuberosum var. Solara, E-H) leaf disks on 2-DOG-containing MS medium. A, E: control MS medium without addition of 2-deoxyglucose; B, F: MS medium with 0.05% 2-DOG; C, G:MS medium with 0.1% 2-DOG; D, H: MS medium with 0.5% 2-DOG. For the detection of the toxicity of 2-DOG leaf pieces (about 1 cm^2) of sterile tobacco and potato plants were cultivated for two weeks on Murashige and Skoog medium (Murashige & Skoog (1962) Physiol. Plant. 15, 473), to which 0.01 to 0.5% 2-DOG had been added.

The test system of another assay is potato leaf disks. Briefly: Toxicity of 2-DOG for plant cells, potato leaf pieces on 2-DOG-containing MS medium. As to conditions: MS medium with 0.01 to 0.5% 2-DOG, two weeks. The format is cell-based, Solanum tuberosum var. Solara.
From the text: as §1

For a further assay, the system named is tobacco seedlings. Briefly: Tobacco seedlings on 0.05% 2-DOG containing MS medium. In kind it is in vivo, Nicotiana tabacum Var. Samsun NN. As to conditions: four weeks. From the text:
Seeds of Nicotiana tabacum Var. Samsun NN were sterilized and placed on 0.05% 2-DOG containing MS medium. A: four weeks old seedlings of an untransformed plant; B: four weeks old seedlings of a plant expressing the DOG^R1 gene under the control of the 35S promoter. In order to detect the resistance of seedlings expressing the DOG^R1 gene seeds of the tobacco plants described in Examples 5 and 6 as well as seeds of untransformed tobacco plants were sterilized and placed on 0.05% 2-DOG containing MS medium.

The next assay relates to potato shoots. Briefly: Potato shoots on 0.05% 2-DOG containing MS medium. In kind it is in vivo, Solanum tuberosum var. Solara. Conditions: five weeks. From the text:
Shoots of potato plants Solanum tuberosum var. Solara were placed on 0.05% 2-DOG containing MS medium. A: five weeks old shoot of an untransformed plant; B: five weeks old shoot of a plant expressing the DOG^R1 gene under the control of the 35S promoter. The construct described in Example 3 was transferred to potato plants Solanum tuberosum var. Solara by Agrobacteria-mediated transformation. The regenerated shoots were cultivated on selection-free medium. After six weeks the tips of the shoots were transferred to 0.05% 2-DOG containing MS medium.

Another assay relates to pea calli. Briefly: Pea calli on 0.075% 2-DOG containing medium. In kind it is cell-based, Pisum sativum. From the text: Calli of pea plants Pisum sativum were placed on 0.075% 2-DOG containing B5 medium. A: calllus of untransformed plant on 0.075% 2-DOG; B: callus of a plant expressing the DOG^R1 gene under the control of the 35S promoter on 0.075% 2-DOG. The construct described in Example 10 was transferred to pea plants of Pisum sativum by Agrobacteria-mediated transformation. Calli of transformed and untransformed plants were placed on 0.075% 2-DOG containing medium.

Assay [1] concerns root growth of many plants. As to conditions: addition of 2-DOG; cited from earlier work.
A further assay has as its system Nicotiana tabacum cells. As to conditions: cited from earlier work.
Assay [2] deals with Picea excelsa (spruce) cells. As to conditions: cited from earlier work.
The subject of the next assay is yeast cells. Conditions: addition of 2-DOG; cited from earlier work.

As to `O=CC[C@@H](O)[C@H](O)[C@H](O)CO` [2-DOG, 2-deoxyglucose], the “effect on leaf disks” value in the assay on tobacco leaf disks and in the assay with potato leaf disks was “caused the leaf disks to die” each time. For the same compound, the values for the seedling survival result in the assay on tobacco seedlings (seedlings expressing DOG^R1 gene under 35S promoter) and in the assay with tobacco seedlings (seedlings of untransformed plants) were “vital” and “died at an early stage of development”, respectively. Further, the shoot growth result was “exhibits root and stem growth” in the assay on potato shoots (shoot expressing DOG^R1 gene under 35S promoter); “has not grown” in the assay on potato shoots (shoot of untransformed plant). Also, the “shoot development from callus” value is “did not develop Shoots” with pea calli (callus of untransformed plants) and “developed shoots” with pea calli (callus transformed with DOG^R1 gene under 35S promoter). Further, the root growth entry in [1] is “inhibits the root growth”. Further, the “cell growth in tissue culture” value (in the assay with Nicotiana tabacum cells; in assay [2]) was “strongly inhibited” throughout. In addition, the “respiration and growth of cells” value in the assay with yeast cells is “inhibition of the respiration and the growth of cells”.
